Biological target: T1, ASK1 (Homo sapiens, UniProt Q99683)
T1 construct: purchased Thermofisher PV4011
T1 sequence (Q99683 1-1374): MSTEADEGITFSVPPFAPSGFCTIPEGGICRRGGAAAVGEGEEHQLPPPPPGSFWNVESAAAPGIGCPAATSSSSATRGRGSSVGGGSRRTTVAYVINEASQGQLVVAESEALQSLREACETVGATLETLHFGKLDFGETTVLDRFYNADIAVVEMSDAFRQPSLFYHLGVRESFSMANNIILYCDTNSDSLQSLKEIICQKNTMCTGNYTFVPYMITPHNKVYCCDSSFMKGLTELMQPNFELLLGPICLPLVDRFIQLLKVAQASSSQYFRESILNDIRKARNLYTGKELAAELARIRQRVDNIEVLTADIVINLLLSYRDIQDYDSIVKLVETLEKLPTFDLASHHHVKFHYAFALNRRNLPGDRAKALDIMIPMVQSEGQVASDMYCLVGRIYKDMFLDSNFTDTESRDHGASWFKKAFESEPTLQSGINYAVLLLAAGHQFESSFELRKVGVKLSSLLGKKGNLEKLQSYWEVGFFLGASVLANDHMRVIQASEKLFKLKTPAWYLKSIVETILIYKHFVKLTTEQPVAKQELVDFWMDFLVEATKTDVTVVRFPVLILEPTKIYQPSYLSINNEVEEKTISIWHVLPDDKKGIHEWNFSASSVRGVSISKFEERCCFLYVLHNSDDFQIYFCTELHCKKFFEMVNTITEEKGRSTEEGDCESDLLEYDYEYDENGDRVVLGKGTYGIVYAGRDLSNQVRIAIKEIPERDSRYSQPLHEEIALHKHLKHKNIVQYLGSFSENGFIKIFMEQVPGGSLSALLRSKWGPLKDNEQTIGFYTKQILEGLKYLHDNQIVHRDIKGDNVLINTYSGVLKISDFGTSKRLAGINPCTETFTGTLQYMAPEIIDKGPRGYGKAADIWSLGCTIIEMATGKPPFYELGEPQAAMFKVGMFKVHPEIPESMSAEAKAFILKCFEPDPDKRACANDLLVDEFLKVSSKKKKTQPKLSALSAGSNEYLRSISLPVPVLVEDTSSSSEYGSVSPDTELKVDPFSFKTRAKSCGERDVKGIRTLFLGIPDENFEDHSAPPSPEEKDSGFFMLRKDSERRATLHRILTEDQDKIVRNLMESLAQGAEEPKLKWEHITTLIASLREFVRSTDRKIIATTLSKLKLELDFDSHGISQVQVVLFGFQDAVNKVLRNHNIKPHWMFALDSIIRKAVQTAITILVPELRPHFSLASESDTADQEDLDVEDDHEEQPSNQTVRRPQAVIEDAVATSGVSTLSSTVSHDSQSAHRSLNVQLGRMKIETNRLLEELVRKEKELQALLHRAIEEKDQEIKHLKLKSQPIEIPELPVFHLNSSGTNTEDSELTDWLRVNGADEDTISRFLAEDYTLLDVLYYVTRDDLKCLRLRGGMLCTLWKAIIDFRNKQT
Assay: HTRF KinEASE-STK TR-FRET kinase assay, inhibition of ASK1
Format: biochemical
Conditions: 5 nM ASK1, 1 uM STK3 peptide substrate, 100 uM ATP
Method: ASK1 was purchased from Thermofisher (Catalogue # PV4011), ATP was purchased from Sigma (Catalogue # A7699), HTRF® KinEASE™ Assay System was obtained from Cisbio (Bedford, Mass.). ½ Area plate was purchased from Perkin Elmer (Catalogue # #6005560). HTRF® KinEASE™-STK is a generic method for measuring serine/threonine kinase activities using a time-resolved fluorescence resonance energy transfer (TR-FRET) immunoassay. The IC50 value for each compound was determined in the presence of compound (various concentration from 0 to 10 μM) and a fixed amount of ATP and peptide substrates. The test compound, 1 uM STK3 peptide substrate, and 5 nM of ASK1 kinase are incubated with kinase reaction buffer containing 50 mM HEPES pH 7.5, 0.01% BRIJ-35, 10 mM MgCl2, and 1 mM EGTA for 30 minutes. 100 uM ATP is added to start kinase reaction and incubated for 3 hours. The STK3-antibody labeled with Eu^3+-Cryptate and 125 nM streptavidin-XL665 are mixed in a single addition with stop reagents provided by the Cisbio kit used to stop the kinase reaction. Fluorescence is detected using an Envision Multilabeled 2014 reader from PerkinElmer. The Fluorescence is measured at 615 nm (Cryptate) and 665 nm (XL665) and a ratio of 665 nm/615 nm is calculated for each well. The resulting TR-FRET is proportional to the phosphorylation level. Staurosporine was used as the positive control. IC50 was determined by XLfit 5.3.

Question: `CC(C)n1cnnc1-c1cccc(NC(=O)c2cc3sc(C4CC4)nc3cc2F)n1` [Example 7, 2-cyclopropyl-5-fluoro-N-(6-(4-isopropyl-4H-1,2,4-triazol-3-yl)pyridin-2-yl)benzo[d]thiazole-6-carboxamide] was tested. Which IC50 did it give?
Answer: 10 to 100 nM

Question: `CCCCNc1nc2cc(F)c(C(=O)Nc3cccc(-c4nncn4C(C)C)n3)cc2s1` [Example 27] was tested. Which IC50 did it give?
Answer: 1 to 10 nM

Question: `CC(C)n1cnnc1-c1cccc(NC(=O)c2cc3sc(C4CC4)nc3cn2)n1` [Example 63, 2-cyclopropyl-N-(6-(4-isopropyl-4H-1,2,4-triazol-3-yl)pyridin-2-yl)thiazolo[4,5-c]pyridine-6-carboxamide] was tested. Which IC50 did it give?
Answer: 10 to 100 nM

Question: With `CC(C)n1cnnc1-c1cccc(NC(=O)c2ccc3nc(N4CC5CC5C4)sc3c2)n1` (stereo not shown) [Example 52] as the molecule, how does the IC50 read?
Answer: 10 to 100 nM

Question: How did the IC50 turn out when `CCN(CC)c1nc2cc(F)c(C(=O)Nc3cccc(-c4nncn4C(C)C)n3)cc2s1` [Example 13] was run?
Answer: 1 to 10 nM

Question: `CC(C)n1cnnc1-c1cccc(NC(=O)c2cc3sc(N(C)C)nc3cn2)n1` [Example 64] was tested. Which IC50 did it give?
Answer: 10 to 100 nM

Question: For `CC(C)n1cnnc1-c1cccc(NC(=O)c2ccc3ncn(C)c3c2)n1` [Example 1, N-(6-(4-isopropyl-4H-1,2,4-triazol-3-yl)pyridin-2-yl)-1-methyl-1H-benzo[d]imidazole-6-carboxamide], which IC50 is on record?
Answer: 100 to 1000 nM

Question: `CC(C)n1cnnc1-c1cccc(NC(=O)c2ccc3nc(N4C5CCCC4CC5)sc3c2)n1` [Example 51] was tested. Which IC50 did it give?
Answer: 10 to 100 nM

Question: How did the IC50 turn out when `CC(C)n1cnnc1-c1cccc(NC(=O)c2cc3sc(NC4CCCCC4)nc3cc2F)n1` [Example 26] was run?
Answer: 1 to 10 nM

Question: With `CC(C)n1cnnc1-c1cccc(NC(=O)c2cc3sc(N4CCN(C(C)(C)C)CC4)nc3cn2)n1` [Example 74] as the molecule, how does the IC50 read?
Answer: 10 to 100 nM

Question: How did the IC50 turn out when `CC(C)n1cnnc1-c1cccc(NC(=O)c2cc3sc(N4CCOCC4)nc3cn2)n1` [Example 65] was run?
Answer: 1 to 10 nM

Question: For `CC(C)n1cnnc1-c1cccc(NC(=O)c2ccc3nc(N(C)C)sc3c2)n1` [Example 23], which IC50 is on record?
Answer: 10 to 100 nM

Question: For `CCCCN(C)c1nc2cc(F)c(C(=O)Nc3cccc(-c4nncn4C(C)C)n3)cc2s1` [Example 9], which IC50 is on record?
Answer: 1 to 10 nM

Question: Which IC50 does the source give for `CC(C)n1cnnc1-c1cccc(NC(=O)c2cc3sc(N4CCC(C(C)(C)C)CC4)nc3cn2)n1` [Example 73] here?
Answer: > 1000 nM

Question: `CC(C)n1nnnc1-c1cccc(NC(=O)c2cc3sc(C4CCC4)nc3cc2F)n1` [Example 36] was tested. Which IC50 did it give?
Answer: 100 to 1000 nM

Question: How did the IC50 turn out when `CC(C)n1nnnc1-c1cccc(NC(=O)c2cc3sc(N4CCC(C(C)(C)C)CC4)nc3cn2)n1` [Example 68] was run?
Answer: > 1000 nM

Question: `CC(C)n1cnnc1-c1cccc(NC(=O)c2cc3sc(C4CCC4)nc3cc2F)n1` [Example 37] was tested. Which IC50 did it give?
Answer: 10 to 100 nM

Question: For `CNc1nc2cc(F)c(C(=O)Nc3cccc(-c4nnnn4C(C)C)n3)cc2s1` [Example 33], which IC50 is on record?
Answer: > 1000 nM

Question: `CCCCN(C)c1nc2cc(F)c(C(=O)Nc3cccc(-c4nnnn4C(C)C)n3)cc2s1` [Example 43] was tested. Which IC50 did it give?
Answer: > 1000 nM

Question: For `CC(C)n1cnnc1-c1cccc(NC(=O)c2ccc3nc(N4CCN(C5CC5)CC4)sc3c2)n1` [Example 55], which IC50 is on record?
Answer: 100 to 1000 nM

Question: For `CC(C)n1nnnc1-c1cccc(NC(=O)c2cc3sc(N4CCN(C(C)(C)C)CC4)nc3cc2F)n1` [Example 3, 2-(4-(tert-butyl)piperazin-1-yl)-5-fluoro-N-(6-(1-isopropyl-1H-tetrazol-5-yl)pyridin-2-yl)benzo[d]thiazole-6-carboxamide], which IC50 is on record?
Answer: > 1000 nM

Question: For `CCN(CC)c1nc2ccc(C(=O)Nc3cccc(-c4nncn4C(C)C)n3)cc2s1` [Example 57], which IC50 is on record?
Answer: 10 to 100 nM

Question: `CC(C)n1nnnc1-c1cccc(NC(=O)c2cc3sc(N(C)CC4CC4)nc3cc2F)n1` [Example 39] was tested. Which IC50 did it give?
Answer: > 1000 nM

Question: How did the IC50 turn out when `CC(C)n1nnnc1-c1cccc(NC(=O)c2cc3sc(N(C)C4CCCCC4)nc3cc2F)n1` [Example 44] was run?
Answer: > 1000 nM

Question: With `CC(C)N(c1nc2ccc(C(=O)Nc3cccc(-c4nncn4C(C)C)n3)cc2s1)C(C)C` [Example 53, 2-(diisopropylamino)-N-(6-(4-isopropyl-4H-1,2,4-triazol-3-yl)pyridin-2-yl)benzo[d]thiazole-6-carboxamide] as the molecule, how does the IC50 read?
Answer: 10 to 100 nM

Question: With `CC(C)n1nnnc1-c1cccc(NC(=O)c2cc3sc(N4CCCCC4)nc3cn2)n1` [Example 62] as the molecule, how does the IC50 read?
Answer: > 1000 nM

Question: For `CC(C)n1cnnc1-c1cccc(NC(=O)c2ccc3nc(N4CC5(COC5)C4)sc3c2)n1` [Example 18], which IC50 is on record?
Answer: 10 to 100 nM

Question: `CC(C)n1cnnc1-c1cccc(NC(=O)c2cc3sc(N(C)C)nc3cc2F)n1` [Example 14] was tested. Which IC50 did it give?
Answer: 1 to 10 nM

— patent US10246439B2, “Apoptosis signal-regulating kinase 1 inhibitors and methods of use thereof” (ENANTA PHARMACEUTICALS, INC., priority 2017, dated 2019)
